From PMC6910946, “Multiple roles of Bet v 1 ligands in allergen stabilization and modulation of endosomal protease activity” (Allergy, 2019)
“Also recorded” adds a separate entry of the source.

How the values were obtained:
[1] = target: T1, Bet_v_1 (endolysosomal proteases of microsomes) (Betula pendula, UniProt P15494); experiment: In vitro simulation of endolysosomal degradation of Bet v 1 with microsomes; type: biochemical; details: for accumulation of N‐terminal cluster peptides during Bet v 1 processing / generation of the immunodominant T‐cell epitope (number of identified peptides): 12 h degradation; for proteolytic stability of Bet v 1 toward endolysosomal proteases: ligand in 10× molar excess, 0-48 h, densitometric analysis of SDS‐PAGE
T1 construct: made in house
T1 sequence (P15494 1-160): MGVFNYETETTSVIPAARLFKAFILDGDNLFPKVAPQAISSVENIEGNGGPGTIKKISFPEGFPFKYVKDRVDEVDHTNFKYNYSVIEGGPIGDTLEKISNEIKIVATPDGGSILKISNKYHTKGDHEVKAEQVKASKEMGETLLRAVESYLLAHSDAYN
Procedure: (§1) The endolysosomal degradation assay was performed with ligand‐bound (either DOC, PPE1, or Q3OS in 10× molar excess) and Bet_v_1 without ligands (apo‐Bet_v_1) as previously described.21 Recombinant human cathepsin S and human legumain were used in proteolytic degradation assays. Experimental details are described in the Appendix [Link], [Link].
The endolysosomal degradation assay was performed with ligand-bound (either DOC, PPE1, or Q3OS in 10× molar excess) and Bet v 1 without ligands (apo-Bet v 1) as previously described.^7 The protein (5 µg) was incubated with 7 µg of microsomes in 100 mM citrate buffer pH 4.8 and 2 mM dithiothreitol (DTT) for 0, 0.5, 1, 3, 6, 12, 24, and 48 h at 37°C. The different digestion preparations were analyzed by SDS-PAGE and quantitatively interpreted using Image Lab 4.0.1 Software (Bio-Rad). The generated peptides obtained after 12 h of digestion were analyzed using mass spectrometry with a Q-Exactive Orbitrap Mass Spectrometer (Thermo Fisher Scientific, Waltham, MA, USA), nanoelectrospray, and nano-HPLC (Dionex Ultimate 3000, Thermo Fisher Scientific).
For data analysis, the web-based application MSTools was used.^8 For the semi-quantitative analysis of the abundance of the generated peptides at 12 hours of degradation, the obtained peptide sequences were clustered into 7 groups according to their amino acid sequence (cluster 1, GVF-NYE-TET-TSV-IPA-ARL-FKA-F; cluster 2, AIL-DGD-NLF-PKV-APQ-A; cluster 3, AIS-SVE-NIE-GNG-GPG-TIK-KIS-FPE-G; cluster 4, FPF-KYV-KDR-VDE-VDH-TNF-K; cluster 5, YNY-SVI-EGG-PIG-DTL-EKI-SNE-IKI-VAT-PDG-GSI-LK; cluster 6, ISN-KYH-TKG-DHE-VKA-EQV-KAS-KEM-GET-LLR; and cluster 7, RAV-ESY-LLA-HSD-AYN), and the total sum of peak areas of all sequences per cluster was calculated (in percentage).

[2] = target: T2, Bet v 1 / human cathepsin S (Betula pendula, UniProt P15494); experiment: Bet v 1 in vitro proteolytic degradation assay with cathepsin S; type: biochemical; details: for processing (degradation) of Bet v 1 by cathepsin S: Bet v 1 20 µM, ligand 100 µM, cathepsin S 1 µM, pH 5.0, 0-24 h, SDS-PAGE
T2 construct: made in house
T2 sequence (P15494 2-160 limits assumed): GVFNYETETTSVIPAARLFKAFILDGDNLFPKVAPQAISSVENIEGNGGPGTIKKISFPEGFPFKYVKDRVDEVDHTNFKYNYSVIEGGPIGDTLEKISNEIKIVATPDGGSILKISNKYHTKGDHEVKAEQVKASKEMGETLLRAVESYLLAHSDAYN
Procedure: as §1
(§2) Recombinant human cathepsin S and human legumain were heterologously expressed and purified as described previously.^9,10 Bet v 1 (20 µM) was incubated with ligand (100 µM) in digestion buffer (0.1 M sodium acetate, pH 5.0, 0.1 M sodium chloride, 5 mM EDTA, and 2 mM DTT) at room temperature prior to the addition of cathepsin S (1 µM) or legumain (2 µM). […] At each time point, the reaction was halted by the addition of E64 (for cathepsin S) or YVAD-CMK (for legumain) at a final concentration of 50 µM, and analyzed by SDS-PAGE. Control reactions without the addition of protease were performed. The generated peptides were analyzed using mass spectrometry.

Bet v 1 / human legumain = target: T3, Bet v 1 / human legumain (Betula pendula, UniProt P15494); experiment: Bet v 1 in vitro proteolytic degradation assay with legumain; type: biochemical
T3 construct: made in house
T3 sequence (P15494 2-160 limits assumed): T2 sequence (P15494 2-160 limits assumed)
Procedure: as §1, §2

[3] = test system: murine BMDCs / CD4+ T‐cell hybridoma cells specific for epitope Thr142‐Ala153; experiment: T-cell proliferation assay: Bet v 1 epitope presentation by BMDCs to CD4+ T-cell hybridomas (IL-2); type: cell-based, mouse; details: Bet v 1 10 µg/mL with 10-fold molar excess of ligand; 16, 24, 32, 48 h
Procedure: The ability of ligand‐loaded Bet_v_1 to induce IgE‐antigen cross‐linking and basophil degranulation was assessed by mediator‐release assays using rat basophil (RBL‐2H3) cells, transfected with the human high‐affinity IgE receptor (FcεRI), as previously described.2, 24 In vitro uptake of labeled Bet_v_1 was performed using CD11c^+ murine bone marrow–derived dendritic cells (BMDCs). The maturation of human monocyte‐derived dendritic cells (moDCs) was analyzed as previously described.2 T‐cell proliferation assays using CD4^+ T‐cell hybridomas were performed as previously described.17 A detailed description of the in vitro assays is available (Appendix [Link], [Link]).
In order to test the relevance of the identified Bet_v_1 ligands in processing and presentation by DCs in a time‐dependent manner, we incubated BMDCs with Bet_v_1 in complex with different ligands and detected the presentation of Bet_v_1 by using CD4^+ T‐cell hybridoma cells specific for the immune‐dominant T‐cell epitope (Thr142‐Ala153). T‐cell proliferation was monitored indirectly by IL‐2 secretion (Figure 5).
Bet v 1 was incubated over night with a 10-fold molar excess of either Q3OS, PPB1, PPE1, or DOC before incubation with murine BMDCs at a concentration of 10 μg/mL in BMDC medium (online supporting information). After 16, 24, 32, and 48h, DCs were washed and CD4^+ T-cell hybridomas specific for the immune-dominant epitope 142-153 of Bet v 1 were added to the culture at a ratio of 1:10 (DC:T-cell) for 24h^17. Supernatants were harvested and IL-2 levels were determined by ELISA (Invitrogen, Thermo Fisher Scientific, Waltham, MA, USA). As a reference, BMDCs were pulsed at each time point with different concentrations of peptide 142-153 and co-cultured with CD4^+ T-cell hybridomas. By interpolating in a standard curve, a µM peptide equivalent from the measured IL-2 was calculated from DCs pulsed with different peptide concentrations. The assays were carried out in triplicates.

[4] = 12 h incubation, mass spectrometry
[5] = relative abundance of peptides by mass spectrometry

| Structure (SMILES) | accumulation of N‐terminal cluster peptides during Bet v 1 processing [1] | generation of the immunodominant T‐cell epitope (number of identified peptides) [1] | Bet v 1 peptide diversity reduced to (versus apo form) [1, 4] [%] | proteolytic stability of Bet v 1 toward endolysosomal proteases [1] | processing (degradation) of Bet v 1 by cathepsin S [2] | processing (degradation) of Bet v 1 by legumain (Bet v 1 / human legumain; Bet v 1 20 µM, ligand 100 µM, legumain 2 µM, pH 5.0, 0-24 h, SDS-PAGE) | MHCII presentation of Bet v 1 epitope (Thr142‐Ala153) on DCs, IL‐2 secretion [3] | Bet v 1 cleavage site frequency with cathepsin S [2, 5] | Bet v 1 cleavage site frequency with legumain (Bet v 1 / human legumain; [5]) | diversity of peptides versus apo form of Bet v 1 [1, 4] [fold] |
| --- | --- | --- | --- | --- | --- | --- | --- | --- | --- | --- |
| C[C@H](CCC(=O)O)[C@H]1CC[C@H]2[C@@H]3CC[C@@H]4C[C@H](O)CC[C@]4(C)[C@H]3C[C@H](O)[C@]12C [DOC, sodium deoxycholate, reference compound] | preferentially accumulated the two N‐terminal cluster peptides | more efficient generation of the immunodominant T‐cell epitope | 69.7 | enhanced proteolytic stability | strongly retarded | strongly retarded | affected only after 48 hours | – | – | – |
| CCC1C(=O)CC(O)C1/C=C/C(O)CCCCCCCC(=O)O (stereo not drawn) [PPE1, E1 phytoprostanes] | preferentially accumulated the two N‐terminal cluster peptides | – | 53.9 | enhanced proteolytic stability | strongly retarded | – | consistently affected the MHCII presentation; also recorded: unique reduction in the presentation of the T‐cell epitopes | preferential cleavage was observed after Phe20, Lys21, and in the C‐terminal region | cleavage frequency after Asn120 and Asp157 strongly increased | – |
| O=c1c(O[C@@H]2O[C@H](CO)[C@@H](O)[C@H](O)[C@H]2O[C@@H]2O[C@H](CO)[C@@H](O)[C@H](O)[C@H]2O)c(-c2ccc(O)c(O)c2)oc2cc(O)cc(O)c12 [Q3OS, quercetin 3‐O‐sophoroside] | – | more efficient generation of the immunodominant T‐cell epitope | – | only a weakly stabilizing effect over the first 12 hours | – | – | did not affect the presentation | – | – | 2 |
